Test results: patent publication US20060167057A1, “Compounds for the treatment of CNS and amyloid associated diseases” (priority 2004, published 2006)

Target: T1, L1 transport system (large neutral amino acid carrier, L1-system carrier) (Rattus norvegicus, UniProt Q63016)
T1 construct: functionality of their endogenous transporters such as the L1-system carrier; endogenous in cells; host or cells: rat primary cerebrovascular (brain microcapillary) endothelial cells, RBEC
Experiment: Competitive binding assay to the brain L1 transport system (L-[U-14C]phenylalanine on rat primary cerebrovascular endothelial cells)
Details: for Status of Binding: compounds of Example 4, 10^−6, 10^−5 and 10^−4, Δ versus phenylalanine
Protocol: Compound samples in PBS (without Ca^+2, Mg^+2)-glucose 30 mM-HEPES 10 mM—DMSO 1% as prepared in Example 1 were thawed and left for at least 30 minutes at 20-23° C. before preparation of the following sub-dilutions for the competitive binding assay: • 200 μL of the stock solution were added to 800 μL PBS (without Ca^+2, Mg^+2)-Glucose-HEPES-1% DMSO (PBSD-1) [diluted 1:5 for a final 1:5 dilution] • 100 μL (1/5 dilution above) were added to 900 μL PBSD-1 [diluted 1:10 for a final 1:50 dilution] • 100 μL (1/50 dilution above) were added to 900 μL PBSD-1 [diluted 1:10 for a final 1:500 dilution]
These sub-dilutions were used immediately or stored overnight at 4° C. before the competitive binding assay. A volume of 45 μL of each of the compound dilutions (1:5, 1:50, 1:500) in PBSD-1 was added to the appropriate wells in the dilution plate.
Brains from sixty 24-day-old rats were dissected individually on a sterile lint moistened with ice cold Hanks' balanced salt solution (Gibco BRL, Grand Island, N.Y.) containing 10 mM HEPES (medium 1) supplemented with 0.1% BSA. Cerebellum, striatum, optic nerves, and brain stem (white matter) were removed. After a mid-sagittal section of the brain, the meninges and leptomeningeal debris were removed by rolling a sterile dry cotton swab on the cortices. (Ichikawa N, Naora K, Hirano H, Hashimoto M, Masumura S, and Iwamoto K (1996). Isolation and primary culture of rat cerebral microvascular endothelial cells for studying drug transport in vitro. J Pharmacol Toxicol Meth 36: 45-52.). Clean cortices were minced in pieces of ≈2 mm^3 in 15 mL of ice-cold medium 1-0.1% BSA. The preparation was divided into 4 sterile pre-weighed tubes and centrifuged at 330× g at 20-25° C. for 5 min. Tubes were weighed and pre-warmed (37° C.) and medium 1 with 0.5% BSA containing 0.3% collagenase and 10 μg/mL DNAse 1 (Roche, Laval, Quebec, Canada) were added to each tube (1 mL/g of tissue).
The brain-collagenase mixture was vigorously agitated in a water bath at 37° C. for 90 min. Fifteen min before the end of the digestion, the tissue was homogenized using a 10-mL pipette until a creamy mixture was obtained (≈20 aspirations). Cells were washed by adding medium 1 with 0.1% BSA to the homogenate (26 mL/tube) and centrifuged at 100× g at 20-25° C. for 7 min. This washing step was repeated 3 more times, once for 5 min and twice for 3 min. Each pellet was re-suspended in 25 mL of a 15% dextran solution prepared in medium 1 with 0.1% BSA and centrifuged at 3200× g at 4° C. for 25 min to isolate vessels from neural tissue and dextran layers. Vascular pellets were re-suspended in 5 mL Ca^++—Mg^++-free-medium 1 with 0.1% BSA (medium 2) at 20-25° C. and transferred in a 50-mL tube. Remaining vessels were collected by rinsing the tubes and pooling the rinsing suspension. (Rupnick M A, Carey A, and Williams S K (1988). Phenotypic diversity in cultured cerebral microvascular endothelial cells in vitro. Cell Develop Biol 24: 435-444.)
The vascular preparation was filtered and rinsed (20 mL of medium 2) through a sterile 355-μm mesh. The 355-μm filtrate was sequentially filtered twice (20 mL of medium 2) through sterile 112-μm meshes and rinsed (Stanimirovic D B, Wong J, Ball R, and Durkin J P (1995). Free radical-induced endothelial membrane dysfunction at the site of the blood-brain barrier: relationship between lipid peroxidation, Na,K-ATPase activity, and ^51Cr release. Neurochem Res 20:1417-1427.) and the latter filtrate was filtered and rinsed through a sterile 20-μm mesh. A final step of filtration and rinse was repeated through a double layer of 20-μm meshes. All 20-μm meshes, which retained the microcapillaries, were then transferred into a 50-mL tube containing 20 mL of a 0.1% collagenase/dispase (Roche) solution in medium 2 supplemented with 10 μg/mL DNAse 1 and 0.147 μg/mL tosyl-lysine-chloromethyl-ketone (Sigma Chemical Co., Oakville, Ontario, Canada) (medium 3).

T1 sequence (Q63016 whole entry): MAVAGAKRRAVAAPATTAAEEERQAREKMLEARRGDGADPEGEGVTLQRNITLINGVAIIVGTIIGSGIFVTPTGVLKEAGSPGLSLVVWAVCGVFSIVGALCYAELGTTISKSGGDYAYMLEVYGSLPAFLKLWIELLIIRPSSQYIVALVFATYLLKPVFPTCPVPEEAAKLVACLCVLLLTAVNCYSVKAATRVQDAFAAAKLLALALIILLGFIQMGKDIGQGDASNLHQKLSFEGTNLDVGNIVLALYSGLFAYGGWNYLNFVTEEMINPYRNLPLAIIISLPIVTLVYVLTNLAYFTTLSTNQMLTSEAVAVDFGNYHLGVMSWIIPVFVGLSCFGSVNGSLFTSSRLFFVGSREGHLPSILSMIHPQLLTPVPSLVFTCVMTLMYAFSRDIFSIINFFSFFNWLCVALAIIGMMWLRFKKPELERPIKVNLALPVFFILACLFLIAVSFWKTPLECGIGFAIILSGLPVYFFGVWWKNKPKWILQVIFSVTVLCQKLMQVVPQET
T1 sequence (Q794F9 whole entry partner): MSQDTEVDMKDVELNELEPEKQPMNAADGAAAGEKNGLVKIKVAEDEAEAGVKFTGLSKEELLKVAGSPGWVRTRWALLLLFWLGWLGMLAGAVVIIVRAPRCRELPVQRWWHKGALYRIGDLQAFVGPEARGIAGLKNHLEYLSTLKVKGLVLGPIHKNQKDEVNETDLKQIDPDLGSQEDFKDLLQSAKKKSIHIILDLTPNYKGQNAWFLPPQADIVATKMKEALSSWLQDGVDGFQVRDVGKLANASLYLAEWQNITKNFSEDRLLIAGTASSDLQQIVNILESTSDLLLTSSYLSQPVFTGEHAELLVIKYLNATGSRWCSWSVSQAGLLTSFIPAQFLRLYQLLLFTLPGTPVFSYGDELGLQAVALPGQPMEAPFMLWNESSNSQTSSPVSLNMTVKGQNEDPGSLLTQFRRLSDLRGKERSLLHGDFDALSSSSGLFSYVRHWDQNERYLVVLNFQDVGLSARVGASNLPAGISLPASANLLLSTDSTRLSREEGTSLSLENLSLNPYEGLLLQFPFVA

Row | Comparison with the Binding of Phenylalanine (10^−4 M) | Comparison with the Binding of Phenylalanine (10^−5 M) | Comparison with the Binding of Phenylalanine (10^−6 M) | Structure (SMILES) | Status of Binding
1 |  |  |  | N[C@@H](Cc1cccc(CS(=O)(=O)c2nc3ccccc3[nH]2)c1)C(=O)O [drawing 478] | 2 (2: 10% ≧ Δ ≧ −10% similar binding affinity to phenylalanine)
2 | 1 (0 < X < 10 Rank 1) | 1 (0 < X < 10 Rank 1) | 2 (10 < X < 20 Rank 2) | Cn1cnnc1SCc1cccc(CC(N)C(=O)O)n1 (stereo not shown) [Compound 156] | 
3 | 0 (X < 0 Rank 0) | 0 (X < 0 Rank 0) | 1 (0 < X < 10 Rank 1) | Cn1cnnc1SCc1cccc(CC(N)C(=O)O)c1 (stereo not shown) [Compound 141] | 
4 | 0 (X < 0 Rank 0) | 1 (0 < X < 10 Rank 1) | 0 (X < 0 Rank 0) | NC(Cc1cccc(CSc2nccc(O)n2)c1)C(=O)O (stereo not shown) [Compound 16] | 
5 | 0 (X < 0 Rank 0) | 0 (X < 0 Rank 0) | 2 (10 < X < 20 Rank 2) | NC(Cc1cccc(CSc2nc(-c3ccccc3)c(-c3ccccc3)[nH]2)n1)C(=O)O (stereo not shown) [Compound 148] | 
6 | 1 (0 < X < 10 Rank 1) | 2 (10 < X < 20 Rank 2) | 2 (10 < X < 20 Rank 2) | NC(Cc1ccc(-c2ccc(CN3CCN(c4cccc(Cl)c4)CC3)cc2)cc1)C(=O)O (stereo not shown) [Compound 116] | 
7 | 0 (X < 0 Rank 0) | 1 (0 < X < 10 Rank 1) | 2 (10 < X < 20 Rank 2) | NC(Cc1cccc(CSc2nc3ccccc3c(=O)[nH]2)n1)C(=O)O (stereo not shown) [Compound 125] | 
8 | 3 (X > 20 Rank 3) | 3 (X > 20 Rank 3) | 3 (X > 20 Rank 3) | O=C(NC(Cc1cccc(CSc2nnc(-c3ccccc3)[nH]2)c1)C(=O)O)NC(c1ccccc1)c1ccccc1 (stereo not shown) [Compound 57] | 
9 | 0 (X < 0 Rank 0) | 0 (X < 0 Rank 0) | 1 (0 < X < 10 Rank 1) | O=C(Nc1ccc(-c2ccccc2)cc1)NC(Cc1cccc(CSc2ncc[nH]2)c1)C(=O)O (stereo not shown) [Compound 52] | 
10 |  |  |  | N[C@@H](Cc1cccc(CSc2nnc(-c3ccncc3)o2)c1)C(=O)O [drawing 484] | 2 (2: 10% ≧ Δ ≧ −10% similar binding affinity to phenylalanine)
11 | 3 (X > 20 Rank 3) | 3 (X > 20 Rank 3) | 3 (X > 20 Rank 3) | NC(Cc1cccc(CSc2nnnn2-c2ccc(O)cc2)c1)C(=O)O (stereo not shown) [Compound 3] | 
12 | 0 (X < 0 Rank 0) | 1 (0 < X < 10 Rank 1) | 0 (X < 0 Rank 0) | NC(=O)C(N)Cc1cccc(CSc2cncc3c(C(F)(F)F)cccc23)n1 (stereo not shown) [Compound 25] | 
13 | 0 (X < 0 Rank 0) | 0 (X < 0 Rank 0) | 1 (0 < X < 10 Rank 1) | Cc1nc(SCc2ccc(-c3ccc(CC(N)C(=O)O)cc3)cc2)sc1CC(=O)O (stereo not shown) [Compound 122] | 
14 | 2 (10 < X < 20 Rank 2) | 3 (X > 20 Rank 3) | 3 (X > 20 Rank 3) | NC(Cc1cccc(-c2cccc(Sc3nc4cc([N+](=O)[O-])ccc4s3)c2)c1)C(=O)O (stereo not shown) [Compound 109] | 
15 | 2 (10 < X < 20 Rank 2) | 3 (X > 20 Rank 3) | 3 (X > 20 Rank 3) | Nc1ccnc(SCc2cccc(CC(N)C(=O)O)n2)n1 (stereo not shown) [Compound 38] | 
16 | 2 (10 < X < 20 Rank 2) | 3 (X > 20 Rank 3) | 3 (X > 20 Rank 3) | CCOC(=O)c1cnc(SCc2cccc(CC(N)C(=O)O)c2)[nH]c1=O (stereo not shown) [Compound 131] | 
17 | 0 (X < 0 Rank 0) | 0 (X < 0 Rank 0) | 1 (0 < X < 10 Rank 1) | NC(Cc1cccc(-c2cccc(Sc3nc(-c4ccccc4)c(-c4ccccc4)o3)c2)c1)C(=O)O (stereo not shown) [Compound 134] | 
18 | 0 (X < 0 Rank 0) | 0 (X < 0 Rank 0) | 1 (0 < X < 10 Rank 1) | NC(Cc1cccc(-c2cccc(N3CCc4ccccc4C3)c2)c1)C(=O)O (stereo not shown) [Compound 115] | 
19 | 0 (X < 0 Rank 0) | 1 (0 < X < 10 Rank 1) | 2 (10 < X < 20 Rank 2) | NC(=O)C(N)Cc1cccc(CSc2nnc(-c3ccncc3)o2)c1 (stereo not shown) [Compound 11] | 
20 | 2 (10 < X < 20 Rank 2) | 3 (X > 20 Rank 3) | 2 (10 < X < 20 Rank 2) | NC(Cc1ccc(-c2ccc(CSc3ncccn3)cc2)cc1)C(=O)O (stereo not shown) [Compound 95] | 
21 |  |  |  | N[C@@H](Cc1cccc(C[S+]([O-])c2nnc(-c3ccccc3)[nH]2)c1)C(=O)O (stereo partly shown) [drawing 482] | 1 (1: −10 > Δ > −50%, lower binding affinity than phenylalanine)
22 | 0 (X < 0 Rank 0) | 0 (X < 0 Rank 0) | 2 (10 < X < 20 Rank 2) | O=C(O)C(Cc1cccc(CSc2nnc(-c3ccncc3)o2)c1)NS(=O)(=O)c1ccc(F)cc1 (stereo not shown) [Compound 12] | 
23 | 2 (10 < X < 20 Rank 2) | 3 (X > 20 Rank 3) | 3 (X > 20 Rank 3) | NC(=O)C(N)Cc1cccc(CSc2nnnn2-c2ccc(O)cc2)c1 (stereo not shown) [Compound 4] | 
24 | 0 (X < 0 Rank 0) | 0 (X < 0 Rank 0) | 2 (10 < X < 20 Rank 2) | NC(=O)C(N)Cc1cccc(CSc2nc3ccccc3o2)n1 (stereo not shown) [Compound 31] | 
25 | 0 (X < 0 Rank 0) | 0 (X < 0 Rank 0) | 1 (0 < X < 10 Rank 1) | NC(Cc1cccc(CN2CC=CCC2)n1)C(=O)O (stereo not shown) [Compound 160] | 
26 | 2 (10 < X < 20 Rank 2) | 3 (X > 20 Rank 3) | 0 (X < 0 Rank 0) | Cc1nnc(SCc2cccc(CC(N)C(=O)O)c2)s1 (stereo not shown) [Compound 81] | 
27 |  |  |  | N[C@@H](Cc1cccc(CS(=O)(=O)c2ncc[nH]2)c1)C(=O)O [drawing 483] | 1 (1: −10 > Δ > −50%, lower binding affinity than phenylalanine)
28 | 0 (X < 0 Rank 0) | 1 (0 < X < 10 Rank 1) | 0 (X < 0 Rank 0) | NC(Cc1cccc(CSc2ccnc3cc(C(F)(F)F)ccc23)c1)C(=O)O (stereo not shown) [Compound 70] | 
29 | 0 (X < 0 Rank 0) | 1 (0 < X < 10 Rank 1) | 3 (X > 20 Rank 3) | N[C@@H](Cc1ccccc1)C(=O)NC(Cc1cccc(CSc2nc3ccccc3[nH]2)n1)C(=O)O (stereo partly shown) [Compound 29] | 
